Like-named read-outs stand apart in the source and are kept apart here. Marks after values point to notes of the source that are not given here.
Key:
[1] = tested on: Prostate subpanel tumor cell lines; assay: In vitro anticancer screening, five concentration levels, prostate subpanel; assay type: cell-based, human
Procedure: (§1) Anticancer evaluation of the newly synthesized compound was performed by a screening in vitro with 60 human cell lines for primary anticancer screening, representing leukemia, melanoma and cancers of the lung, colon, brain, ovary, breast, prostate and kidney. The screening was a two-stage process, beginning with the evaluation of all compounds against the 60 cell lines at a single-dose of 10 μM. […] Therefore this compound passed on to further evaluation at five concentration levels ranging from 0.01 μM to 100 μM.

[2] = tested on: Ovarian subpanel tumor cell lines; assay: In vitro anticancer screening, five concentration levels, ovarian subpanel; assay type: cell-based, human
Procedure: as §1

60 human cell lines = assay: In vitro anticancer screening, full panel; assay type: cell-based; details: for GI50: Homo sapiens, read-out: GI50 MG-MID (full panel mean-graph midpoint)
Procedure: as §1

[3] = tested on: Colon subpanel tumor cell lines; assay: In vitro anticancer screening, five concentration levels, colon subpanel; assay type: cell-based, human
Procedure: as §1

[4] = tested on: Leukemia subpanel tumor cell lines; assay: In vitro anticancer screening, five concentration levels, leukemia subpanel; assay type: cell-based, human
Procedure: as §1

[5] = tested on: Lung subpanel tumor cell lines; assay: In vitro anticancer screening, five concentration levels, lung subpanel; assay type: cell-based, human
Procedure: as §1

[6] = tested on: CNS subpanel tumor cell lines; assay: In vitro anticancer screening, five concentration levels, CNS subpanel; assay type: cell-based, human
Procedure: as §1

[7] = tested on: Melanoma subpanel tumor cell lines; assay: In vitro anticancer screening, five concentration levels, melanoma subpanel; assay type: cell-based, human
Procedure: as §1

[8] = tested on: DENA-induced liver cancer in rats; assay: Liver function in DENA-induced liver cancer in rats; assay type: in vivo, rat; details: for ALP / ALT / AST / Bili (total bilirubin): serum, mean ± SE
Procedure: (§2) Adult male Sprague-Dawley rats (180±20 g, body weight), were purchased from the animal house of the National Research Centre, Egypt. They were maintained for 1 week under environmentally controlled conditions (constant temperature, 25-27° C., with 12-hour light/dark cycles) for 1 week prior to starting the experiments. The […] were housed with 10 animals per cage, and were provided with tap water and commercial diets.
Diethylnitrosamine (DENA) and carbon tetrachloride (CCl4) were purchased from Sigma-Aldrich Chemical Corp., (St. Louis, Mo., USA). The DENA was dissolved in normal saline and injected as a single dose (200 mg/kg, intraperitoneally, i.p.) to initiate hepatic carcinogenesis. The CCl4 was administered as a single dose (2 ml/kg) by gavage as a 1:1 dilution in corn oil to stimulate liver cell proliferation and regeneration. The aspartate transaminase (AST), alanine transaminase (ALT), alkaline phosphatase (ALP), and total bilirubin (Bili) kits were obtained from BioMérieux (France).
Adult male Sprague-Dawley rats were divided into groups of eight animals each. Group 1 rats (untreated control) were fed a standard diet and given water throughout the experiment. Group 2 rats (treated with DENA) were injected with a single dose of DENA (200 mg/kg, i.p.), and 2 weeks later received a single dose of CCl4 (2 ml/kg) by gavage as 1:1 dilution in corn oil. Group 3 rats (treated with DENA and target compound) consisted of rats that were treated as the rats in Group 2, but also were treated with target compound administered IV at a dose that was 1/10 the LD50, for 10 consecutive days.
At the end of the treatment protocol on day 30 after the last injection, the animals were anesthetized with ether, and blood samples were drawn from the orbital venous plexus. The serum was separated by centrifugation for 5 minutes at 1500 g, and stored at −20° C. until analyzed. This serum was used to determine the liver function by assaying the ALT, AST, and ALP activities and total bilirubin spectrophotometrically according to the manufacturer's instructions using reagent kits obtained from […]. Liver function was measured, comparing results for control rats with results in DENA-treated and in target compound-treated rats. The results were reported as mean±standard error of the mean (SE). Statistical significance was analyzed using a one-way analysis of variance (ANOVA) followed by the Student's t-test, while the differences were considered to be significant at p<0.05.

[9] = tested on: Renal subpanel tumor cell lines; assay: In vitro anticancer screening, five concentration levels, renal subpanel; assay type: cell-based, human
Procedure: as §1

[10] = tested on: DENA-induced liver cancer in rats; assay: Histopathological examination of rat liver sections; assay type: in vivo; details: H&E staining
Text: For the histopathological examination, the animals were euthanized by decapitation and their livers were rapidly excised, weighed, and washed with saline. Portions of the livers were fixed in 10% formalin in saline, embedded in paraffin wax, serially sectioned, and stained. A standard method of hematoxylin and eosin (H&E) staining was also used.

[11] = tested on: Breast subpanel tumor cell lines; assay: In vitro anticancer screening, five concentration levels, breast subpanel; assay type: cell-based, human
Procedure: as §1

Sprague-Dawley rats = assay: In vivo acute toxicity (LD50); parameters: species or system rat
Procedure: as §2
Acute toxicity of the target compound was determined in vivo according to previously reported methods in the literature. Briefly, animals were divided into groups of 10 rats each, and administered single intravenous (IV) doses, graded ranging from 0 to 1200 μg/kg, of the synthesized compound. Control animals received vehicle alone (dimethyl sulfoxide, DMSO).
The mortality of the animals was monitored for up to 1 month posttreatment. […] Acute toxicity was considered by the in vivo assay.

[12] = DENA/CCl4 rats treated IV at 1/10 LD50 for 10 days, day 30 after last injection
[13] = rats given DENA 200 mg/kg i.p. then CCl4, no target compound

COc1ccc(-c2nn(-c3cccc(Cl)c3)cc2/C=C2\C(=N)N(c3ccccc3)N=C2N)cc1 [Compound 2, (4Z)-4-((1-(3-Chlorophenyl)-3-(4-methoxyphenyl)-1H-pyrazol-4-yl)methylene)-4,5-dihydro-5-imino-1-phenyl-1H-pyrazol-3-amine] was tested, and the “Selectivity ratio, Prostate” value [1] was 5.19, the GI50 ([1]; Homo sapiens, read-out: Median growth inhibitory concentration GI50, Prostate) was 690 nM and the “Selectivity ratio, Ovarian” value [2] was 0.59. For the same compound, the GI50 ([2]; Homo sapiens, read-out: Median growth inhibitory concentration GI50, Ovarian) was 6110 nM, the GI50 (60 human cell lines; 60 cell) was 3590 nM and the “Growth inhibition, one dose mean graph” value (60 human cell lines; single-dose of 10 μM, 60 cell lines) was “significant growth inhibition”. The “Selectivity ratio, Colon” value [3] was 2.86, the GI50 ([3]; Homo sapiens, read-out: Median growth inhibitory concentration GI50, Colon) was 1250 nM and the “Selectivity ratio, Leukemia” value [4] was 5.86. The GI50 ([4]; Homo sapiens, read-out: Median growth inhibitory concentration GI50, Leukemia) was 610 nM, the “Selectivity ratio, Lung” value [5] was 0.49 and the GI50 ([5]; Homo sapiens, read-out: Median growth inhibitory concentration GI50, Lung) was 7390 nM. The “Selectivity ratio, CNS” value [6] was 0.63, the GI50 ([6]; Homo sapiens, read-out: Median growth inhibitory concentration GI50, CNS) was 5700 nM and the “Selectivity ratio, Melanoma” value [7] was 1.27. For the same compound, the GI50 ([7]; Homo sapiens, read-out: Median growth inhibitory concentration GI50, Melanoma) was 2830 nM, the “AST, ALT and ALP activities and total bilirubin level compared to DENA-treated rats (in words)” value ([8]; dose of 1/10 of the LD50) was “substantial normalization” and the ALP [8, 12] was 124.00 ± 12.00^b U/L. For the same compound, the ALT [8, 12] was 49.00 ± 4.6^b U/L, the AST [8, 12] was 70.00 ± 7.2^b U/L and the “Bili (total bilirubin)” value [8, 12] was 1.63 ± 0.16^b mg/dl. The “Selectivity ratio, Renal” value [9] was 0.65, the GI50 ([9]; Homo sapiens, read-out: Median growth inhibitory concentration GI50, Renal) was 5550 nM and the “Liver histology (H&E) of DENA-rats treated with target compound” value ([10]; listed as target) was “improvement in the hepatic pattern associated with normal hepatic architecture”. The “Liver histology (H&E) of DENA-rats treated with target compound” value ([10]; listed as target compound) was “normal hepatic architecture”, the “Selectivity ratio, Breast” value [11] was 1.68 and the GI50 ([11]; Homo sapiens, read-out: Median growth inhibitory concentration GI50, Breast) was 2130 nM. For the same compound, the “Median lethal dose (LD50)” value (Sprague-Dawley rats; single IV dose, mortality monitored up to 1 month) was 195 μg/kg body weight and the “Acute toxicity (in words)” value (Sprague-Dawley rats; single IV doses 0 to 1200 μg/kg) was “no marked acute toxicity”.

In the case of CCN(CC)N=O [DENA, Diethylnitrosamine, reference compound], the ALP [8, 13] is reported as 215.00 ± 15.7^a U/L, the ALT [8, 13] is reported as 95.00 ± 7.0^a U/L and the AST [8, 13] is reported as 110.00 ± 7.8^a U/L. For the same compound, the “Bili (total bilirubin)” value [8, 13] was 2.90 ± 0.20^a mg/dl.

With CNC(=O)c1cc(Oc2ccc(NC(=O)Nc3ccc(Cl)c(C(F)(F)F)c3)cc2)ccn1 [Sorafenib, sorafenib, reference compound] the GI50 (60 human cell lines; full panel, 60 cell lines) was 1900 nM.

From patent US10039749B1, “Substituted pyrazole derivatives” (KING SAUD UNIVERSITY, priority 2018, dated 2018)
